Results from patent publication US9856348B2, “Multifunctional degradable nanoparticles with control over size and functionalities” (Vanderbilt University, priority 2007, dated 2018).

Key:
[1] = test system: mice with microbead-elevated intraocular pressure
Description: Two groups of mice (N=3 each) were compared to determine the effect of a single intravitreal injection of brimonidine-laced nanoparticle relative to a single topical drop (eyedrop) of clinical-grade brimonidine. For each mouse, intraocular pressure (IOP) was acutely elevated by an injection (1 μl) of polystyrene microbeads into the anterior chamber of the eye. This induces a 35-40% elevation in IOP that persists for 3-4 weeks. […] IOP was tracked using TonoPen XL measurements until any lowering effect was dissipated.

[2] = test system: human microvascular endothelial cells (HMEC); experiment: Internalization of FITC-dendrimer conjugates, temperature effect and controls; assay type: cell-based; details: 10 uM, 60 min, 37° C.
Description: Internalization of FD-1 and FD-2 in mammalian cells was assessed using two different cell lines and a previously described method [Futaki, S.; Nakase, I.; Suzuki, T.; Youjun, Y.; Sugiura, Y. Biochemistry 2002, 41, 7925.] with NIH-3T3 fibroblasts and HMEC (human microvascular endothelial cells) and a Zeiss LSM 510 confocal microscope. […] [Futaki, S.; Nakase, I.; Suzuki, T.; Youjun, Y.; Sugiura, Y. Biochemistry 2002, 41, 7925.; Vivès, E.; Brodin, P.; Lebleu, B. J. Biol. Chem. 1997, 272, 16010.] Furthermore, the extent of internalization increased in an incubation time-dependent manner, and it was observed that after just 10 min, the fluorescence intensity of cells treated with FD-2 was near saturation. […] L. Org. Lett. 2005, 7, 4815.] but also regulate the subcellular localization of the molecule and its putative cargo. […] Therefore, the dendrimer with a hexyl spacer crosses the cell membrane faster than the molecule with an ethyl chain. On the other hand, the localization patterns can also be controlled by the length of the spacer. FD-1 with the short spacer appeared to be localized everywhere in the cell, but highly concentrated in the nucleus. […] These translocation features of guanidinlyated dendritic scaffolds as carriers can be important for intracellular delivery of cargo molecules to specific subcellular compartments (e.g., cytosol or nucleus). […]

| Molecule | IOP one day after application ([1]; single application (1 μl) on day 4 after microbead injection) | time after administration at which IOP returned to elevated levels ([1]; single topical application (1 μl)) | fluorescence of treated cells (control experiments) [2] |
| --- | --- | --- | --- |
| Brc1c(NC2=NCCN2)ccc2nccnc12 [topical brimonidine, 5-Bromo-N-(4,5-dihydro-1H-imidazol-2-yl)quinoxalin-6-amine] | normal levels | Six |  |
| fluorescein isothiocyanate [free FITC] |  |  | no |
